# Assay results as given in patent US20260375265A1, “COMPOSITION FOR ALLEVIATING SKIN PIGMENTATION” (LG H & H CO., LTD., priority 2023, published 2026).
# Columns and labels:
# dark skin tone = assay: Human application trial: customized prescription for high-risk group of dark skin tone; format: in vivo; conditions: twice daily, four weeks
# Procedure: Accordingly, it was aimed to provide substances capable of increasing the improvement efficiency of dark skin tone according to the risk level of developing dark skin tone.
# (§1) After receiving approval from the Institutional Review Board (IRB, Korea) (LG-SKEV-2022-09-A), the study was conducted in accordance with the standard operating guidelines and clinical trial standards of the Institutional Review Board of LG Household & Health Care Co., Ltd. Nine healthy adult subjects aged 20-50 with no apparent skin abnormalities were selected.
# Based on the genetic polymorphic markers associated with skin tone brightness in Table 2, subjects were classified into low-risk and high-risk groups according to their risk level of developing dark skin tone as follows. • Risk scores (the sum of each genotype multiplied by its respective effect size (β)) for the five genetic markers were less than −0.193→low-risk group (n=4). • Risk scores (the sum of each genotype multiplied by its respective effect size (β)) for the five genetic markers were −0.193 or higher→high-risk group (n=5).
# The same as in Example 4-2 […]
# PIE's Janus3 was used to photograph the front and side of the face under normal, polarized, and UV light. […] The pigmentation improvement was calculated by determining the increase in the skin tone brightness values after four weeks of use compared to the skin tone brightness values before use.
# PPARGC1B [1] = assay: qPCR of PPARGC1B mRNA expression in a-MSH-treated B16F10 cells; format: cell-based, mouse; conditions: B16F10, 10 nM a-MSH plus substance, one day, appropriate concentration; FIG. 3
# Procedure: (§2) Screening was performed for substances that influence the expression of genes associated with spot pigmentation among various substances having the skin-improving efficacy. Changes in the expression of genes associated with spot pigmentation were examined in cells where melanin synthesis was increased by a-MSH, and substances that restored the expression to the level before a-MSH treatment were selected.
# (§3) Mouse melanoma cells (B16F10; CRL-6475) were purchased from ATCC for use. The purchased cells were cultured in a 37 °C/5% CO2 incubator using a medium prepared by supplementing Dulbecco's Modified Eagle Medium (DMEM-GIBCO) with 10% fetal bovine serum (FBS) and 1% penicillin/streptomycin.
# (§4) To analyze the efficacy on changes in the mRNA expression of genes associated with skin spot pigmentation, mouse melanoma cells were seeded at […] cells/well in 6-well plates and cultured in a 37 °C/5% CO2 incubator for one day. After replacing the medium with a fresh medium, 10 nM α-MSH was treated, and substances were added to the medium at appropriate concentrations and cultured for one day under the same conditions. Thereafter, total RNA was obtained using AccuPrep Universal RNA Extraction Kit (Bioneer, K-3140), and cDNA was synthesized using AccuPower® RocketScript™ Cycle (Bioneer, K-2202). The expression level of each gene was analyzed by performing qPCR using synthesized cDNA and taqman probe (assay ID: ASCL2-Mm01268891_m1, PPARGC1B-Mm00504730_m1, TP63-Hs00978349_m1).
# [2] = tested on: scattered dark spots on skin; assay: Human application trial: customized prescription for high-risk group of scattered dark spots; format: in vivo; conditions: twice daily, four weeks
# Procedure: Accordingly, it was aimed to provide specific substances capable of increasing the improvement efficiency of scattered dark spots according to the risk level of developing scattered dark spots on skin, dark skin tone, and/or spot pigmentation.
# as §1, with “Ten” for “Nine”, “selected. […]” for “selected.”
# PIE's Janus3 was used to photograph the front and side of the face under normal, polarized, and UV light. […] The pigmentation improvement rate (%) was calculated by determining the percentage reduction in the pigmentation values after four weeks of use compared to the polarized pigmentation values before use.
# KITLG = assay: qPCR of KITLG mRNA expression in UVB-irradiated human keratinocytes (HaCaT); format: cell-based; conditions: UVB 30 mJ/cm^2 (312 nm), substance one day, appropriate concentration, FIG. 2, UVB alone increased
# Procedure: as §2, with “dark skin tone” for “spot pigmentation”, “having” for “having the”
# To analyze the efficacy on changes in the mRNA expression of genes associated with dark skin tone, RT-qPCR experiment was conducted. Cells were cultured in a 37 °C/5% CO2 incubator for one day. To assess the change of KITLG expression by UVB, the medium of human keratinocytes (HaCaT) was replaced with PBS, and 30 mJ/cm^2 of UVB (312 nm) was irradiated using an RMX 3W (Vilber Lourmat) instrument. The medium was replaced with a fresh medium and cultured for one day. To assess the change in KITLG expression by treatment with substances, the cells were treated with appropriate concentrations of substances along with a fresh medium and cultured for one day. […] The expression level of each gene was analyzed by performing qPCR using synthesized cDNA and taqman probe (assay ID: OCA2-Mm00498969_m1, BNC2-Mm00556284_m1, RAB32-Mm00458960_m1, KITLG-Hs00241497_m1).
# RAB11FIP2 = assay: qPCR of RAB11FIP2 mRNA expression in UVB-irradiated mouse melanoma cells; format: cell-based; conditions: B16F10, UVB 30 mJ/cm^2 (312 nm), substance one day, appropriate concentration; FIG. 1; UVB alone decreased
# Procedure: as §2, with “scattered dark spots on skin” for “spot pigmentation”, “having” for “having the”, “UVB exposure,” for “a-MSH,”, “UVB exposure” for “a-MSH treatment”
# as §3
# To analyze the efficacy on changes in the mRNA expression of genes associated with scattered dark spots on skin, mouse melanoma cells were seeded at 2*10^5 cells/well in 6-well plates and cultured in a 37 °C/5% CO2 incubator for one day. After replacing the medium with PBS, 30 mJ/cm^2 of UVB (312 nm) was irradiated using an RMX 3W (Vilber Lourmat) instrument. Substances were added to the medium at appropriate concentrations and cultured for one day under the same conditions. […] The expression level of each gene was analyzed by performing qPCR using synthesized cDNA and taqman probe (assay ID: AKAP1-Mm00501539_m1, RAB11FIP2-Mm01261268_m1, PPARGC1B-Mm00504730_m1).
# mouse melanoma cells = assay: Inhibition of melanin production increased by UVB (scattered dark spots); format: cell-based; conditions: light or radiation study, 48 h, 25 ppm DIPA alone, UVB 30 mJ/cm^2, two days, FIG. 4, read-out: reduction of melanin production (Y)
# Procedure: In detail, mouse melanoma cells were seeded at 2*10^5 cells/well in 6-well plates and cultured in a 37 °C/5% CO2 incubator for one day, followed by irradiation with 30 mJ/cm^2 of UVB (312 nm). Each of media comprising appropriate concentrations and combinations of substances was added and cultured again in a 37 °C/5% CO2 incubator for two days to determine whether or not the substances inhibited the melanin production increased by UVB. Cells attached to the plates were collected in PBS and centrifuged to obtain cell pellets. The cell pellets were visually inspected and photographed. The cell pellets were dissolved in a 1 N NaOH (sodium hydroxide) solution comprising 10% dimethyl sulfoxide (DMSO) at 80 °C for 10 minutes, and placed in a 96-well plate, and absorbance at 405 nm was measured using an Epoch (Biotek) instrument. Melanin was quantified using the measured absorbance and normalized to the sample protein concentration to determine melanin concentration. The inhibition rate of melanin production of the sample was calculated as a ratio of the melanin concentration of the sample treatment group with respect to the melanin concentration increased by UVB.
# E=(X+Y)−(X*Y/100) Colby equation
# PPARGC1B [3] = assay: qPCR of PPARGC1B mRNA expression in UVB-irradiated mouse melanoma cells; format: cell-based; conditions: B16F10, UVB 30 mJ/cm^2 (312 nm), substance one day, appropriate concentration; FIG. 1; UVB alone decreased
# Procedure: as §2, with “scattered dark spots on skin” for “spot pigmentation”, “having” for “having the”, “UVB exposure,” for “a-MSH,”, “UVB exposure” for “a-MSH treatment”
# as §3
# To analyze the efficacy on changes in the mRNA expression of genes associated with scattered dark spots on skin, mouse melanoma cells were seeded at 2*10^5 cells/well in 6-well plates and cultured in a 37 °C/5% CO2 incubator for one day. After replacing the medium with PBS, 30 mJ/cm^2 of UVB (312 nm) was irradiated using an RMX 3W (Vilber Lourmat) instrument. Substances were added to the medium at appropriate concentrations and cultured for one day under the same conditions. Thereafter, total RNA was obtained using AccuPrep Universal RNA Extraction Kit (Bioneer, K-3140), and cDNA was synthesized using AccuPower® RocketScript Cycle (Bioneer, K-2202). The expression level of each gene was analyzed by performing qPCR using synthesized cDNA and taqman probe (assay ID: AKAP1-Mm00501539_m1, RAB11FIP2-Mm01261268_m1, PPARGC1B-Mm00504730_m1).
# [4] = general description; cited from earlier work
# [5] = general description; very acidic; concentration not given; cited from earlier work
# ASCL2 = assay: qPCR of ASCL2 mRNA expression in a-MSH-treated B16F10 cells; format: cell-based, mouse; conditions: B16F10, 10 nM a-MSH plus substance, one day, appropriate concentration; FIG. 3
# Procedure: as §2, §3
# as §4, with “Thereafter, total RNA was obtained using AccuPrep Universal RNA Extraction Kit (Bioneer, K-3140), and cDNA was synthesized using AccuPower® RocketScript™ Cycle (Bioneer, K-2202).” left out
# [6] = 8% vitamin C essence, high-risk group (n=5)
compound,measurement,setting,value
O=C1O[C@H]([C@@H](O)CO)C(O)=C1O [ascorbic acid],pigmentation improvement in the high-risk group,dark skin tone; [6],did not improve pigmentation
same,pigmentation improvement in the low-risk group,"dark skin tone; low-risk group (n=4), FIGS. 12, 13",slightly improved pigmentation
same,change of PPARGC1B expression,PPARGC1B [1],increased
same,pigmentation improvement in the high-risk group,[2]; [6],did not improve pigmentation
same,pigmentation improvement in the low-risk group,"[2]; low-risk group (n=5), FIGS. 10, 11",did not improve pigmentation
"O=c1cc(-c2ccccc2)oc2cc(O)cc(O)c12 [chrysin, 5,7-dihydroxyflavone]",change of KITLG expression,KITLG,decreasing
"CC(C)OC(=O)CCCCC(=O)OC(C)C [diisopropyl adipate (DIPA), diisopropyl adipate]",change of RAB11FIP2 expression,RAB11FIP2,increasing
same,inhibition at 25 ppm,mouse melanoma cells,~1.5%
"NC(=O)c1cccnc1 [niacinamide, reference compound]",change of PPARGC1B expression,PPARGC1B [3],increased
same,solubility in water,[4],dissolves well in water
"O=C(O)c1ccccc1O [salicylic acid, reference compound]",change of PPARGC1B expression,PPARGC1B [3],increased
same,pH,[5],2.4
tocopherol,change of ASCL2 expression,ASCL2,decreasing
